Experimental data published in PubChem BioAssay (NCI).
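The compound was tested at five concentrations on cells cultured in 96-well plates, with a 48-hour exposure period. Abbreviation: GI50, concentration required for 50% inhibition of growth. The concentration for full growth arrest is given as TGI.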

Key:
Assay in all cases: inhibition of tumour cell growth, NCI panel, 48 h
T-47D breast = test system: T-47D breast
786-0 renal = test system: 786-0 renal
OVCAR-3 ovarian = test system: OVCAR-3 ovarian
SN12C renal = test system: SN12C renal
COLO 205 colon = test system: COLO 205 colon
HCT-15 colon = test system: HCT-15 colon
EKVX NSCLC = test system: EKVX NSCLC
SF-268 CNS = test system: SF-268 CNS
RXF 393 renal = test system: RXF 393 renal
UACC-257 melanoma = test system: UACC-257 melanoma
SK-MEL-28 melanoma = test system: SK-MEL-28 melanoma
MALME-3M melanoma = test system: MALME-3M melanoma
U251 CNS = test system: U251 CNS
M14 melanoma = test system: M14 melanoma
MCF7 breast = test system: MCF7 breast
K-562 leukemia = test system: K-562 leukemia
IGROV1 ovarian = test system: IGROV1 ovarian
MDA-MB-231 breast = test system: MDA-MB-231 breast
OVCAR-4 ovarian = test system: OVCAR-4 ovarian
LOX IMVI melanoma = test system: LOX IMVI melanoma
HL-60(TB) leukemia = test system: HL-60(TB) leukemia
SK-MEL-2 melanoma = test system: SK-MEL-2 melanoma
SK-OV-3 ovarian = test system: SK-OV-3 ovarian
SK-MEL-5 melanoma = test system: SK-MEL-5 melanoma
HOP-92 NSCLC = test system: HOP-92 NSCLC
SNB-19 CNS = test system: SNB-19 CNS
UO-31 renal = test system: UO-31 renal
BT-549 breast = test system: BT-549 breast
SNB-75 CNS = test system: SNB-75 CNS
CCRF-CEM leukemia = test system: CCRF-CEM leukemia
HCT-116 colon = test system: HCT-116 colon
HT29 colon = test system: HT29 colon
NCI/ADR-RES ovarian = test system: NCI/ADR-RES ovarian
A549 NSCLC = test system: A549 NSCLC
ACHN renal = test system: ACHN renal
OVCAR-8 ovarian = test system: OVCAR-8 ovarian
MOLT-4 leukemia = test system: MOLT-4 leukemia
A498 renal = test system: A498 renal
HCC-2998 colon = test system: HCC-2998 colon
DU-145 prostate = test system: DU-145 prostate
MDA-MB-435 = test system: MDA-MB-435
UACC-62 melanoma = test system: UACC-62 melanoma
CAKI-1 renal = test system: CAKI-1 renal
PC-3 prostate = test system: PC-3 prostate
SF-295 CNS = test system: SF-295 CNS
HS 578T breast = test system: HS 578T breast
MDA-MB-468 breast = test system: MDA-MB-468 breast
OVCAR-5 ovarian = test system: OVCAR-5 ovarian
NCI-H23 lung = test system: NCI-H23 lung
TK-10 renal = test system: TK-10 renal
KM12 colon = test system: KM12 colon
NCI-H226 lung = test system: NCI-H226 lung
HOP-62 NSCLC = test system: HOP-62 NSCLC
RPMI-8226 leukemia = test system: RPMI-8226 leukemia
SF-539 CNS = test system: SF-539 CNS

**Q.** What does the source list for Nc1cc(-c2c[nH]c3ccc(Cl)cc23)nc2cc(-c3c[nH]c4ccccc34)nn12?
**A.** GI50 (T-47D breast): 2.61 µM; GI50 (786-0 renal): 1.67 µM; TGI (786-0 renal): 3.67 µM; GI50 (OVCAR-3 ovarian): 2.9 µM; TGI (OVCAR-3 ovarian): 10.5 µM; GI50 (SN12C renal): 3.63 µM; TGI (SN12C renal): 14.3 µM; GI50 (COLO 205 colon): 1.75 µM; TGI (COLO 205 colon): 3.6 µM; GI50 (HCT-15 colon): 1.61 µM; TGI (HCT-15 colon): 3.24 µM; GI50 (EKVX NSCLC): 2.44 µM; TGI (EKVX NSCLC): 8.51 µM; GI50 (SF-268 CNS): 2.75 µM; TGI (SF-268 CNS): 12.7 µM; GI50 (RXF 393 renal): 2.23 µM; TGI (RXF 393 renal): 6.61 µM; GI50 (UACC-257 melanoma): 2.99 µM; TGI (UACC-257 melanoma): 12.2 µM; GI50 (SK-MEL-28 melanoma): 1.87 µM; TGI (SK-MEL-28 melanoma): 4.23 µM; GI50 (MALME-3M melanoma): 1.78 µM; TGI (MALME-3M melanoma): 3.23 µM; GI50 (U251 CNS): 1.8 µM; TGI (U251 CNS): 4.22 µM; GI50 (M14 melanoma): 1.85 µM; TGI (M14 melanoma): 4.17 µM; GI50 (MCF7 breast): 1.83 µM; TGI (MCF7 breast): 3.96 µM; GI50 (K-562 leukemia): 2.15 µM; TGI (K-562 leukemia): 5.7 µM; GI50 (IGROV1 ovarian): 3.34 µM; TGI (IGROV1 ovarian): 12.7 µM; GI50 (MDA-MB-231 breast): 1.96 µM; TGI (MDA-MB-231 breast): 3.6 µM; GI50 (OVCAR-4 ovarian): 3.65 µM; TGI (OVCAR-4 ovarian): 17.1 µM; GI50 (LOX IMVI melanoma): 1.75 µM; TGI (LOX IMVI melanoma): 3.22 µM; GI50 (HL-60(TB) leukemia): 2.09 µM; TGI (HL-60(TB) leukemia): 7.43 µM; GI50 (SK-MEL-2 melanoma): 2.28 µM; TGI (SK-MEL-2 melanoma): 6.05 µM; GI50 (SK-OV-3 ovarian): 6.25 µM; TGI (SK-OV-3 ovarian): 20 µM; GI50 (SK-MEL-5 melanoma): 2.05 µM; TGI (SK-MEL-5 melanoma): 4.42 µM; GI50 (HOP-92 NSCLC): 2.1 µM; TGI (HOP-92 NSCLC): 5.65 µM; GI50 (SNB-19 CNS): 2.95 µM; TGI (SNB-19 CNS): 10.7 µM; GI50 (UO-31 renal): 2.59 µM; TGI (UO-31 renal): 10.4 µM; GI50 (BT-549 breast): 4.98 µM; TGI (BT-549 breast): 17.9 µM; GI50 (SNB-75 CNS): 1.71 µM; TGI (SNB-75 CNS): 9.69 µM; GI50 (CCRF-CEM leukemia): 2.99 µM; TGI (CCRF-CEM leukemia): 9.39 µM; GI50 (HCT-116 colon): 1.67 µM; TGI (HCT-116 colon): 3.12 µM; GI50 (HT29 colon): 2.04 µM; TGI (HT29 colon): 4.62 µM; GI50 (NCI/ADR-RES ovarian): 3.45 µM; TGI (NCI/ADR-RES ovarian): 14.7 µM; GI50 (A549 NSCLC): 2.76 µM; TGI (A549 NSCLC): 12.1 µM; GI50 (ACHN renal): 2.76 µM; TGI (ACHN renal): 7.77 µM; GI50 (OVCAR-8 ovarian): 3.19 µM; TGI (OVCAR-8 ovarian): 17.3 µM; GI50 (MOLT-4 leukemia): 1.86 µM; TGI (MOLT-4 leukemia): 5.04 µM; GI50 (A498 renal): 2.09 µM; TGI (A498 renal): 7.69 µM; GI50 (HCC-2998 colon): 1.86 µM; TGI (HCC-2998 colon): 3.6 µM; GI50 (DU-145 prostate): 3.56 µM; TGI (DU-145 prostate): 12.9 µM; GI50 (MDA-MB-435): 2.42 µM; TGI (MDA-MB-435): 7.27 µM; GI50 (UACC-62 melanoma): 1.72 µM; TGI (UACC-62 melanoma): 3.55 µM; GI50 (CAKI-1 renal): 1.99 µM; TGI (CAKI-1 renal): 5.28 µM; GI50 (PC-3 prostate): 2.59 µM; TGI (PC-3 prostate): 7.89 µM; GI50 (SF-295 CNS): 1.81 µM; TGI (SF-295 CNS): 3.61 µM; GI50 (HS 578T breast): 3.25 µM; TGI (HS 578T breast): 16.4 µM; GI50 (MDA-MB-468 breast): 1.45 µM; TGI (MDA-MB-468 breast): 3.2 µM; GI50 (OVCAR-5 ovarian): 1.9 µM; TGI (OVCAR-5 ovarian): 4.32 µM; GI50 (NCI-H23 lung): 2.23 µM; TGI (NCI-H23 lung): 5.5 µM; GI50 (TK-10 renal): 2.9 µM; TGI (TK-10 renal): 13.3 µM; GI50 (KM12 colon): 2.02 µM; TGI (KM12 colon): 4.27 µM; GI50 (NCI-H226 lung): 3.52 µM; TGI (NCI-H226 lung): 28 µM; GI50 (HOP-62 NSCLC): 3.1 µM; TGI (HOP-62 NSCLC): 10.7 µM; GI50 (RPMI-8226 leukemia): 2.29 µM; TGI (RPMI-8226 leukemia): 6.98 µM; GI50 (SF-539 CNS): 1.81 µM; TGI (SF-539 CNS): 3.47 µM
